According to patent publication US20250345350A1, “TREATING PAIN ASSOCIATED WITH CENTRAL SENSITIZATION” (Medicon Pharmaceuticals, Inc., priority 2022, published 2025):
“And” between values parts separate entries of the source, which are not always exact repeats. Equal values may be shown once.

Assays:
[1] = test system: STZ-induced central sensitization in Sprague-Dawley rats; experiment: PWT (von Frey), streptozotocin rat model of central sensitization (Example 4); type: in vivo
Procedure: Sprague-Dawley rats were fasted for 4-6 hours before being injected intraperitoneally with 45 mg/kg STZ. This was performed for all experimental groups, except the naive group. In order to prevent hypoglycaemic death, rats received 10% sucrose water as the sole water source for the first 48 hours after injection. In order to ensure only those rats considered diabetic (i.e., having non-fasting plasma glucose levels of >250 mg/dL) were included in the study, blood glucose was measured at 72 hours after the STZ injection.
Four weeks after STZ injection, the rats were randomised into treatment groups. This delay between STZ injection and treatment allows the establishment of chronic pain (allodynia) associated with central sensitization. […] 5% lidocaine cream (positive control) was applied only once to both hind paws of the rats 30 minutes before measurement of PWT.
The rats were split into 8 study groups, with those in the experimental groups (1-4) having an average body weight of about 225 g, and those in the control groups (5-8) having an average body weight of about 335 g, as follows: • 1. Group 1: naive rats (n=5) • 2. Group 2: STZ only (n=6) • 3. Group 3: STZ plus vehicle (n=6) • 4. […] Group 5: STZ plus oral vehicle (n=8) • 6. Group 6: STZ plus 0.7% sulindac hydrogel (n=7) • 7. Group 7: STZ plus 5% lidocaine cream (n=8) • 8.

[2] = test system: NTG-induced migraine in mice; experiment: PWT (von Frey), NTG-induced migraine mouse model, intraperitoneal clinical compounds (Example 15); details: 30 min after single i.p. dose given 30 min after NTG; topiramate 30 mg/kg, sumatriptan 600 μg/kg, propranolol 10 mg/kg, gabapentin 30 mg/kg
Procedure: In line with the earlier Examples, migraine was induced using 0.4 mg of NTG administered sublingually in the form of a finely crushed 0.4 mg NTG tablet (Greenstone Brand).
A single intraperitoneal dose of topiramate (30 mg/kg), sumatriptan (600 μg/kg), propranolol (10 mg/kg), gabapentin (30 mg/kg) or vehicle was administered 30 min after the induction of migraine, at the indicated doses.
Group 1: baseline (i.e, no NTG treatment) • 2. Group 2: vehicle • 3. Group 3: topimarate • 4. Group 4: sumatriptan • 5. Group 5: propanolol • 6. Group 6: gabapentin
Mechanical allodynia was determined using the method of von Frey filaments in line with that performed in the earlier Examples. The PWT test was performed 30 minutes after compound or vehicle control administration. The mechanical threshold, expressed as g, indicates the force of the von Frey filament to which the animal reacted.

[3] = test system: NTG-induced chronic migraine in mice; experiment: PWT (von Frey), NTG-induced chronic migraine model, oral (Example 16)
Procedure: In particular, mice receive sublingual NTG 0.4 mg in the form of a finely crushed 0.4 mg NTG tablet (Greenstone Brand) every two days, receiving a total of five doses. For control mice, an NTG placebo (Practi-Nitroglycerin Sublingual 0.4 mg Simulated Medication tablet) was administered in the same way.
Group 1: placebo NTG (i.e, no NTG treatment, n=8) • 2. Group 2: NTG (n=8) • 3. Group 3: NTG+vehicle (n=8) • 4. […] Group 5: NTG+sulindac (n=8)
Mechanical allodynia was determined using von Frey filaments in line with that performed in the earlier Examples. The PWT test was performed prior to NTG (or placebo NTG) administration to determine baseline values, as indicated. […] The mechanical threshold, expressed as g, indicates the force of the von Frey filament to which the animal reacted.

[4] = test system: NTG-induced migraine in C57BL/6J mice; experiment: PWT (von Frey), NTG-induced migraine mouse model, topical (Example 13); details: confirmation of NTG model
Procedure: Specifically, instead of the intraperitoneal injection of NTG, a finely crushed 0.4 mg NTG tablet (Greenstone Brand) was administered sublingually. As a control, a Practi-Nitroglycerin Sublingual 0.4 mg Simulated Medication tablet was used.
For determining mechanical allodynia, pain threshold responses were measured using the well-established method of von Frey filaments in line with that performed in the earlier Examples.
The PWT test, assessing mechanical allodynia, was performed 30 minutes after treatment. The mechanical threshold, expressed as g, indicates the force of the von Frey filament to which the animal reacted.

[5] = test system: paclitaxel-induced CIPN in C57BL/6J mice; experiment: PWT (von Frey), mouse model of CIPN, oral administration (Example 5); type: in vivo; details: day 7; oral gavage three times a day for 7 days, PS 50 mg/kg, sulindac 33 mg/kg
Excerpt: CIPN was induced in mice with chemotherapeutic agents using established protocols (Carozzi et al, 2010; Currie et al, 2019; Eldridge et al, 2020). […] This dosing regimen of paclitaxel produces pain associated with CIPN with time courses that are similar to those of pain after paclitaxel administration in cancer patients.
Group 1: naive mice (i.e. no paclitaxel, n=8) • 2. Group 2: paclitaxel only (n=8) • 3. Group 3: paclitaxel plus vehicle (n=8) • 4. […] Group 5: paclitaxel plus sulindac (n=8)
The PWT test was performed on day 7.

[6] = test system: paclitaxel-induced central sensitization in C57/BL mice; experiment: Paw withdrawal threshold (von Frey), paclitaxel model, topical PS (Example 1); details: day 10, about 30 min after last application; PS 8% hydrogel topically to both hind paws 3 times a day for 10 days
Procedure: The paclitaxel was administered into all study groups once a day for 3 days.
The first doses were administered 2 days after the last administration of paclitaxel.
The study groups were as follows: • 1. Group 1: paclitaxel only (n=9) • 2. Group 2: paclitaxel plus vehicle (n=10) • 3.
In order to determine the outcome of the treatment, pain threshold responses were measured using the well-established method of von Frey filaments. […] The results of the PWT test are expressed as force applied (gm). […] The data is expressed as percent change from the respective baseline value.

[7] = test system: paclitaxel-induced central sensitization in C57/BL/6J mice; experiment: Cold allodynia (acetone test), paclitaxel model (Example 3); type: in vivo, mouse; details: after paclitaxel treatment
Procedure: To determine the outcome of treatment, assessment of mechanical allodynia was performed. […] Both methods of assessing allodynia are described in Toma W, et al. Neuropharmacology 2017; 117:305-15. Mechanical and cold allodynia are determined at least one day apart in the same animal.
The acetone test was used. Briefly, acetone was applied onto the plantar surface of each hind paw. The time each mouse spent licking, lifting, and/or shaking the hind paw recorded over 60 seconds was the score for cold allodynia. Measurements were performed on day-8 (before the first paclitaxel injection), the day of starting treatment (day 0) and then on day 15.

[8] = test system: paclitaxel-induced central sensitization in C57/BL/6J mice
Procedure: Regarding the treatment with lidocaine: 5% lidocaine cream (a positive control) was applied once to both hind paws of the mice 30 minutes before measurement of PWT.
Briefly, for mechanical allodynia, pain threshold responses were measured using the well-established method of von Frey filaments in line with that performed in the earlier Examples. The PWT test was performed on day-8 (before the first dose of paclitaxel), the day of starting treatment (day 0, at which central sensitization was fully established) and day 14 (treatment continued until day 15). The mechanical threshold, expressed as g, indicates the force of the von Frey filament to which the animal reacted.

[9] = test system: paclitaxel-induced pain associated with central sensitization in C57BL/6J mice; experiment: Mechanical allodynia (von Frey), paclitaxel-induced pain, topical PS 8% (Example 2); type: in vivo, mouse
Excerpt: (§1) Food and water were available ad libitum.
(§2) Paw withdrawn, licking or shaking were considered positive responses.

[10] = PS and metabolites in proximal and distal half of the sciatic nerve (Example 25); type: in vivo, mouse; details: mouse, in vivo
Procedure: In a separate experiment we studied 8 mice with paclitaxel-induced PN treated with PS 8% ointment 3×/d for 2 wks. Mice were euthanized as above 30 minutes after the last dose of PS. From these mice we harvested both sciatic nerves dividing each into proximal and distal halves, and combined the corresponding halves of every two animals for assay of drug levels.

[11] = test system: NTG-induced chronic migraine in mice; experiment: PWT (von Frey), NTG-induced chronic migraine model, intraperitoneal topiramate and sumatriptan (Example 17); type: in vivo, mouse
Procedure: The NTG-induced chronic migraine model was used as described previously.
sumatriptan (600 μg/kg), or vehicle was administered.
. Group 1: NTG+vehicle (n=8) • 2. Group 2: NTG+topiramate (n=8) • 3. Group 3: NTG+sumatriptan (n=8)

[12] = test system: oxaliplatin-induced pain associated with central sensitization in C57BL/6J mice; experiment: Mechanical allodynia (von Frey), oxaliplatin-induced pain, topical PS 8% (Example 2); type: in vivo, mouse; details: day 0, in the two study groups respectively; cumulative 30 mg/kg i.p.
Excerpt: as §1
(§3) Protocol for the Treatment of Established Pain Associated with Central Sensitization with PS
as §2

[13] = test system: chronic constriction injury-induced peripheral neuropathy in C57BL/6J mice; experiment: PWT (von Frey), chronic constriction injury model of PTPN, topical (Example 7); details: day 14, PS 5% gel or sulindac 0.7% gel on left paw three times a day for 14 days, pregabalin once by oral gavage 1 h before
Procedure: Group 1: ligation only (i.e, surgical control with no treatment, n=5-7) • 2. Group 2: vehicle control (n=5-7) • 3. […] Group 4: 0.7% sulindac (n=5-7) • 5.
Briefly, for determining mechanical allodynia, pain threshold responses were measured using the well-established method of von Frey filaments in line with that performed in the earlier Examples. The PWT test was performed on day 14. The mechanical threshold, expressed as g, indicates the force of the von Frey filament to which the animal reacted.

[14] = test system: vincristine-induced pain associated with central sensitization in C57BL/6J mice; experiment: Mechanical allodynia (von Frey), vincristine-induced pain, topical PS 8% (Example 2); type: in vivo, mouse
Excerpt: as §1, §3, §2

[15] = Baseline, prior to NTG administration
[16] = Post-compound administration, 30 min after single i.p. dose, topiramate 30 mg/kg, sumatriptan 600 μg/kg

CN(N=O)C(=O)N[C@H]1C(O)O[C@H](CO)[C@@H](O)[C@@H]1O (mixture of isomers) [STZ, streptozotocin]
PWT, gm Mean ± SEM ([1]; week 7, PS 8% hydrogel to both hind paws 3 times a day for 3 weeks from week 4 after STZ): 15.7 ± 0.84 gm

NCC1(CC(=O)O)CCCCC1 [Gabapentin, gabapentin]
PWT, g Mean ± SEM [2]: 1.44 ± 0.25 g

O=[N+]([O-])OCC(CO[N+](=O)[O-])O[N+](=O)[O-] [NTG, nitroglycerin]
PWT, g Mean ± SEM [3, 15]: 1.95 ± 0.18 g
PWT, g Mean ± SEM ([3]; Day 11, orally once a day for 11 days concurrent with NTG, PS 50 mg/kg, sulindac 33 mg/kg): 0.66 ± 0.11 g
PWT, g 30 min Mean ± SEM ([4]; 30 min after sublingual NTG 0.4 mg): 0.70 ± 0.12 g
PWT, g 60 min Mean ± SEM ([4]; 60 min after sublingual NTG 0.4 mg): 0.51 ± 0.05 g

CC(=O)O[C@H]1C(=O)[C@@]2(C)[C@H]([C@H](OC(=O)c3ccccc3)[C@]3(O)C[C@H](OC(=O)[C@H](O)[C@@H](NC(=O)c4ccccc4)c4ccccc4)C(C)=C1C3(C)C)[C@]1(OC(C)=O)CO[C@@H]1C[C@@H]2O [Paclitaxel, paclitaxel, reference compound]
PWT, g Mean ± SEM [5]: 0.53 ± 0.03 g
PWT, % baseline Mean ± SEM [6]: 86.75 ± 5.42 % baseline
cold allodynia score (acetone test) [7]: 7.1 ± 0.4 s
mechanical allodynia score, mean±SEM ([8]; day 0, after paclitaxel, central sensitization fully established): 0.55 ± 0.05 g
mechanical allodynia score, mean±SEM ([9]; day 0 (initiation of treatment), paclitaxel-induced pain): 0.78 ± 0.08 g
mechanical allodynia score, mean±SEM ([9]; day 16, PS 8% ointment 3x/day to hind paws): 0.57 ± 0.05 g
reduction of mechanical allodynia scores by paclitaxel ([9]; paclitaxel administered over 12 days, cumulative 32 mg/kg i.p.): ~85%

CC(C)NCC(O)COc1cccc2ccccc12 (stereo not drawn) [Propanolol, propranolol]
PWT, g Mean ± SEM [2]: 1.37 ± 0.14 g

CC1=C(CC(=O)O)c2cc(F)ccc2/C1=C\c1ccc(S(C)(=O)=O)cc1 [Sulindac sulfone, sulindac sulfone]
Distal half of sciatic nerve, mean ± SEM [10]: 0.9 ± 0.2 µM
Fold difference (distal vs proximal) [10]: 4.5 fold
Proximal half of sciatic nerve, μM, mean ± SEM [10]: 0.2 ± 0.08 µM

CNS(=O)(=O)Cc1ccc2[nH]cc(CCN(C)C)c2c1 [Sumatriptan, sumatriptan]
PWT, g Mean ± SEM [2]: 1.34 ± 0.12 g
PWT, g Mean ± SEM [11, 15]: 1.90 ± 0.06 g
PWT, g Mean ± SEM ([11]; Day 12 (pre-treatment)): 0.57 ± 0.02 g
PWT, g Mean ± SEM [11, 16]: 1.33 ± 0.17 g

CC1(C)O[C@@H]2[C@@H](CO[C@@]3(COS(N)(=O)=O)OC(C)(C)O[C@@H]23)O1 [Topiramate, topiramate]
PWT, g Mean ± SEM [2]: 1.40 ± 0.14 g
PWT, g Mean ± SEM [11, 15]: 2.40 ± 0.24 g
PWT, g Mean ± SEM ([11]; Day 12 (pre-treatment)): 0.60 ± 0.00 g
PWT, g Mean ± SEM [11, 16]: 1.76 ± 0.11 g

CCN(CC)CC(=O)Nc1c(C)cccc1C [lidocaine]
PWT, gm Mean ± SEM ([1]; 0.7% sulindac hydrogel 3 times a day for 1 week, 5% lidocaine cream once 30 min before, pregabalin 10 mg/kg orally once 1 h before): 26.0 ± 1.8 gm
PWT, g Mean ± SEM ([8]; day 14, PS hydrogel 5% or 0.7% sulindac 3 times a day, 5% lidocaine cream once 30 min before, pregabalin 10 mg/kg orally once 1 h before): 1.48 ± 0.12 g

O=C1[O][Pt]2([NH][C@@H]3CCCC[C@H]3[NH]2)[O]C1=O [oxaliplatin, reference compound]
reduction of allodynia score during oxaliplatin administration [12]: 65% and 56%

CC(C)C[C@H](CN)CC(=O)O [pregabalin, reference compound]
PWT, g Mean ± SEM [13]: 1.1 ± 0.10 g
PWT, g Mean ± SEM ([13]; listed as Pregabalin): 1.1 ± 0.10 g

CC[C@]1(O)C[C@H]2CN(CCc3c([nH]c4ccccc34)[C@@](C(=O)OC)(c3cc4c(cc3OC)N(C=O)[C@H]3[C@@](O)(C(=O)OC)[C@H](OC(C)=O)[C@]5(CC)C=CCN6CC[C@]43[C@@H]65)C2)C1 [vincristine]
mechanical allodynia score, mean±SEM ([14]; day 0): 0.7 ± 0.07 g
reduction of mechanical allodynia score by vincristine ([14]; day 0 vs day -7, three groups, cumulative 3 mg/kg i.p.): 61%-65%
mechanical allodynia score, mean±SEM ([14]; day 16): 0.8 ± 0.09 g
